Patent US20220354870A1, “READY-TO-USE BUPIVISONE PLUS LIQUID FORMULATION” (LEITERS, Inc., priority 2021, published 2022)
Entries after “also recorded” stand apart in the source; their conditions may differ. Where a name gives a salt, the structure may show the parent alone.

Experiments:
Assay type in all cases: physicochemical
[1] = Stability testing of syringed formulation with methylparaban (Example 2); conditions: stability study
Description: (§1) The samples were produced using an approved batch record and shipped to contract laboratories for stability testing. The samples were stored according to ICH Q1A (R2) as follows: • Long term: Refrigerated (5° C. ±3° C.) in Horizontal Orientation, Protected from Light • Accelerated Condition: Room Temperature (25° C. ±2° C. and 40% RH ±5% RH) Horizontal Orientation, Protected from Light
(§2) The method development procedure for the strength and potency aligned with the defined criteria in USP <1225> for a stability indicating method. The procedures used for microbiology testing were based on method suitability performed at T0.

[2] = Stability testing of syringed formulation prepared without preservative (Example 3); conditions: stability study
Description: The formulations without a preservative were prepared following the method described in Example 1 except no preservative(s) was used.
as §1, §2

[3] = Potency after room temperature storage of syringe in nitrogen-flushed hermetically sealed pouch (Example 4); conditions: formulation of Table 4 (no preservative) in syringe, hermetically sealed pouch flushed with nitrogen
Description: A preliminary evaluation of the feasibility of packaging syringes was performed. Hermetically sealed pouch containing a syringe with the exemplary formulation from Table 4 was flushed with nitrogen to reduce oxygen levels.

Row | Impurities of the active versus FDA/ICH guidelines ([1]; hydrochloride) | Impurities of the active versus FDA/ICH guidelines ([1]; listed as Bupivicaine, hydrochloride) | SMILES | Impurities of the active versus limits of ICH guidelines, FDA and in-house SOP [2] | Potency (% label claim) after storage at room temperature for 90 days [3] [%] | Impurities of the active versus FDA/ICH guidelines [1]
1 | met FDA/ICH Guidelines | met the acceptable limits | CCCCN1CCCCC1C(=O)Nc1c(C)cccc1C (stereo not shown) [Bupivacaine HCl, bupivacaine hydrochloride] | met the acceptable limits | 97.2 | –
2 | – | – | CNC[C@H](O)c1ccc(O)c(O)c1 [Epinephrine, epinephrine] | met the acceptable limits | 104.2 | met FDA/ICH Guidelines; also recorded: met the acceptable limits
